Data as given in US20210379085A1, “HALOGENATED SALICYLANILIDES FOR TREATING THE SYMPTOMS OF DERMATITIS” (Union Therapeutics A/S, priority 2018, published 2021).

Assay: Systemic exposure to niclosamide (serum) after topical application in healthy volunteers
Format: in vivo
Conditions: human, after topical niclosamide formulations twice daily 7 days and final dose Day 8
Procedure: The skin biopsies were taken using sterile single use disposable biopsy punches (BP40F, Kai Europe GmbH, Solingen, Germany). For the 6 non-treated healthy volunteers biopsies were taken on Day 1. 10 mL of blood was collected at day 1 for the method validation group to determine niclosamide concentration in the blood.

concentration at 8 day: 0.24 ng/mL
SMILES: O=C(Nc1ccc([N+](=O)[O-])cc1Cl)c1cc(Cl)ccc1O [Niclosamide, niclosamide]
